The values that follow come from patent US20240117303A1, “METHODS AND COMPOSITIONS FOR GENERATING HUMAN MIDBRAIN DOPAMINERGIC NEURONS FROM NEURAL PROGENITOR CELLS” (Trailhead Biosystems Inc., priority 2022, published 2024).

“Also recorded” adds a separate entry of the source.

For test [1], the system named is stage 1 neural stem cells. As to the kind of experiment: HD-DoE 12-factor experiment for stage 2 recipe (first model, FIG. 5-7, 12). The format is cell-based, human. Particulars: for value of FOXA2 in absence of the factor / value of LMX1A in absence of the factor: stage 2 recipe, first experiment model; for value of FOXA2 in absence of the factor: 10,000 with all factors; for value of LMX1A in absence of the factor: 30,000 with all factors. An excerpt: To further guide the differentiation of midbrain-committed neural stem cells to neural progenitor cells at stage 2, we performed an additional HD-DoE experiment. We thereby obtained additional gene regulatory models that were used for preparation of differentiation protocol. The basis of this was a 12-factor HD-DoE experiment with focus on initiation of differentiation of cells toward midbrain neural progenitor cells for an additional 3 days after termination of stage 1 treatment. Here, we focused on expression of LMX1A and FOXA2 in neural progenitor cells with low to zero expression of GBX2. LMX1A had significant high expression level in the model with value of 47888. Therefore, we used optimization setting for this gene to identify the positive factors. The factors in this experiment included SC79, MK2206, ZM336372, PD0325901, CHIR99021, A 83-01, TTNPB, AGN193109, GW3965, SR9243, Purmorphamine and GSI-XX.
(§1) To assess the impact of elimination of each validated factor, we used dynamic profile analysis and compared the expression level of genes of interest in absence of each finalized factor while others are present.
In the stage 2 recipe, each of the six finalized factors were removed while the other five factors were present and the expression levels of FOXA2, LMX1A and GBX2 were assessed, compared to the levels in the presence of all factors. According to the first experiment model, the absence of TTNPB lead to a rise of GBX2 expression, while the value of FOXA2 and LMX1A reduced drastically from 10,000 to 0 and 30,000 to 15,000, respectively. The absence of A 83-01 reduced the expression of FOXA2 from 10,000 to 7000, however, as expected, the value of LMX1A increased from 30,000 to 40,000. […] According to the second experiment model, the absence of BMP7 and MK2206 both reduced the level of FOXA2 while increasing the value of LMX1A, with BMP7 as the main effector that led to 0 expression of FOXA2.

Test [2] deals with stage 2 neural progenitors. Description: HD-DoE 12-factor model for stage 3 recipe (FIG. 19-23, 29). The format is cell-based, human. An excerpt: To develop the neuronal differentiation recipes, the impact of various agonist and antagonists (effectors) on maturation of MB neural progenitors was investigated using the HD-DoE method described in Example 1. These effectors were chosen based on available literature on developmental biology, differentiation of stem cells as well as mouse and human single cell RNA-seq data from midbrain neurons at the time.
To engineer the recipe of stage 3 of differentiation, cells were first cultured in the stage 1 and stage 2 media as described herein, then they were treated with combinations of 8 or 12 factors for 3 days and the gene expression of cells in each condition was modeled. To guide the cells towards a subtype of midbrain dopaminergic neurons that reside in Substantia Nigra pars compacta (SNc) region of the brain, neural progenitors need to be SOX6^+ (Pereira et al. (2021) Cell Rep. 37:109975 Oosterveen et al. (2021) Stem Cell Reports 16:2718-2735 Poulin et al. (2020) Trends Neurosci. 43:155-169). CORIN, NGN2 and MSX1 are other markers involved in neurogenesis of dopaminergic neurons originating from floorplate region of developing midbrain (Wang et al. (2020) Cells 9:1489; Samata et al. (2016) Nat Commun. 7:13097; Ono et al. (2007) Development 134:3213-3225; Prakash et al. (2006) J. Physiol. 575:403410).
Therefore, we focused on maximizing expression of SOX6, CORIN, NGN2 and MSX1 in modeling experiments. One of the 12-factor models, the results of which are shown in FIG. 19, including LDN193189, AGN193109, BMP7, TTNPB, PD0325901, A8301, MHY1485, CHIR99021, XAV939, SANT-1, Purmorphamine and MK2206, provided a combination set that could maximize expression level of CORIN to more than 2000.
To assess the impact of elimination of each validated factor identified in Example 5 for the stage 3 and stage 4 recipes, we used dynamic profile analysis and compared the expression level of genes of interest in absence of each finalized factor while others are present.
In the stage 3 recipe, each of the finalized factors were removed in their respective models while other factors were present and the expression level of genes of interest was assessed compared to presence of all factors. When AGN193109 was excluded, level of all CORIN, KCNJ6, MSX1 and SOX6 decreased from 900 to 450, 50 to 35, 140 to 110 and 105 to 60, respectively. […] When PD0325901 was removed, expression levels of CORIN and KCNJ6 increased to 1200 and 70 while levels of MSX1 and SOX6 decreased to 105 and 20. In the absence of CHIR99021, the expression level of CORIN was again increased to 1200 while the level of KCNJ6 and MSX1 dropped to 50 and 115. […] Therefore, it was decided to include this compound in the final recipe. […] Therefore, CHIR99021 was also included in the final recipe.

Test [3] relates to human pluripotent stem cells. As to the kind of experiment: HD-DoE 13-factor experiment for stage 1 recipe, gene expression modeled after 3-day treatment; dynamic profile and factor criticality analysis. The following applies: for impact on expression of FOXA2 / impact on expression of OTX2: 13 effectors; for expression level of LMX1A in absence of the factor / expression level of FOXA2 in absence of the factor / expression level of DMBX1 in absence of the factor / expression level of OTX2 in absence of the factor: stage 1 recipe, other four factors present; for expression level of LMX1A in absence of the factor: 300 with all five factors; for expression level of FOXA2 in absence of the factor: 600 with all five factors; for expression level of DMBX1 in absence of the factor: 3000 with all five factors; for expression level of OTX2 in absence of the factor: 12000 with all five factors. The format is cell-based.
Source text: This example utilizes a method of High-Dimensional Design of Experiments (HD-DoE), as previously described in Bukys et al. (2020) Iscience 23:101346. The method employs computerized design geometries to simultaneously test multiple process inputs and offers mathematical modeling of a deep effector/response space. The method allows for finding combinatorial signaling inputs that control a complex process, such as during cell differentiation. It allows testing of multiple plausible critical process parameters, as such parameters impact output responses, such as gene expression. Because gene expression provides hallmark features of the phenotype of, for example, a human cell, the method can be applied to identify, and understand, which signaling pathways control cell fate. In the current example, the HD-DOE method was applied with the intent to find conditions for induction of midbrain neural progenitor-expressed genes, directly from the pluripotent stem cell state.
To develop the recipe for each stage, the impact of agonists and antagonists of multiple signaling pathways (referred to herein as “effectors”) on the expression of two sets of 53 pre-selected genes after a 3-day treatment was tested and modeled. These effectors are small molecules or proteins that are commonly used during stepwise differentiation of stem cells to specific fates. The choice of the effectors to test was based on current literature on neural induction in the midbrain region of the developing brain and differentiation of stem cells to neural progenitors.
To test the effectors, experiments with at least 8 factors were designed that can assess the response of cells to 48 or more different combinations of effectors in a range of concentrations. To analyze the models, we focused on expression of genes expressed in the midbrain region, including OTX2, DMBX1, FOXA2, LMX1A, and on the absence of GBX2, which is a hindbrain marker. The impact of each effector on gene expression level is defined by a parameter called factor contribution that is calculated for each effector during the modeling.
To identify the recipe of stage 1 of differentiation, cells were treated with various effectors for 3 days and the gene expression of cells was modeled. […] This model consisted of 13 factors including LDN193189, PD173074, BLU9931, Purmorphamine, SC79, MK2206, ZM336372, PD0325901, CHIR99021, XAV939, UCLA-gp130, Tofacitinib and GO 6983.
as §1
In the stage 1 recipe, each of the five finalized factors were removed while the other four factors were present and the expression levels of OTX2, DMBX1, FOXA2 and LMX1A was assessed compared to the levels in the presence of all five factors (FIG. 11A-B). […] Expression level of DMBX1 increased in absence of LDN193189, however values of OTX2, FOXA2 and LMX1A decreased.

Where [4] appears, read: dynamic profile / model, 12 effectors.
[5] abbreviates: model optimized for maximum expression of FOXA2, positive impact.
Setting [6] is: model optimized for LMX1A, positive impact.
Where [7] appears, read: model maximizing expression of CORIN, positive regulatory impact.
The mark [8] stands for this setting: model optimized for maximum expression of FOXA2, positive effect.
Where [9] appears, read: model optimized for MSX1, negative regulatory effect.
[10] abbreviates: Purmorphamine added to the original 4 effectors, dynamic profile.
Setting [11] is: model maximizing expression of CORIN, negative impact.

For the compound `Cc1cccc(-c2nn(C(=S)Nc3ccccc3)cc2-c2ccnc3ccccc23)n1` [A 83-01], in test [1] (addition of A 83-01 at 300 nM, dynamic profile), the “level of GBX2” value was roughly 0. Besides, the “impact on expression of FOXA2” value in test [1] (setting [4]) is “positive impacts”. In test [1] (setting [5]), this compound gave a factor contribution of 6.7. Moreover, in test [1], the “value of FOXA2 in absence of the factor” value stood at 7000 and the “value of LMX1A in absence of the factor” value is 40,000.

`Cc1ccc(C2=CCC(C)(C)c3ccc(C#Cc4ccc(C(=O)O)cc4)cc32)cc1` [AGN193109]: the factor contribution was less than 1 in test [1] (setting [6]); 20.3 in test [2] (setting [7]); 17 in test [2] (model optimized for maximum expression of KCNJ6, positive regulators); 26.1 in test [2] (model optimized for maximum expression of SOX6, positive impact). Moreover, the “impact on expression of KCNJ6” value in test [2] (dynamic profile, 12 effectors) is on record as “positive impact”. Further, in test [2] (stage 3 recipe, other factors present, 50 with all factors), the “expression level of KCNJ6 in absence of the factor” value is recorded as 35. Further, in test [2] (stage 3 recipe, other factors present, 105 with all factors), the “expression level of SOX6 in absence of the factor” value amounted to 60. Also, the “expression level of MSX1 in absence of the factor” value in test [2] (stage 3 recipe, other factors present, 140 with all factors) is reported as 110. The “expression level of CORIN in absence of the factor” value in test [2] (stage 3 recipe, other factors present, 900 with all factors) was found to be 450.

`O=C(O)Cc1cccc(OCCCN(Cc2cccc(C(F)(F)F)c2Cl)CC(c2ccccc2)c2ccccc2)c1` [GW3965]: in test [1] (setting [4]), the “impact on expression of FOXA2” value is recorded as “positive impact” and the “impact on expression of LMX1A” value is recorded as “positive impact”. The factor contribution in test [1] (setting [6]) came out at 5.4. For the same compound, in test [1], the “value of FOXA2 in absence of the factor” value is 17,000 and the “value of LMX1A in absence of the factor” value is recorded as 10,000.

On to `c1ccc2c(-c3cnn4cc(-c5ccc(N6CCNCC6)cc5)cnc34)ccnc2c1` [LDN193189], for which, in test [3] (dynamic profile), the “impact on expression of FOXA2” value is “positive impact” and the “impact on expression of OTX2” value is on record as “positive impact”. In addition, in test [3] (setting [8]), the factor contribution was found to be 13.6. Also, the factor contribution in test [3] (model optimized for maximum expression of OTX2, positive impact, 3-day treatment) is given as 11.9. In test [3], the “expression level of LMX1A in absence of the factor” value is on record as “decreased”, the “expression level of FOXA2 in absence of the factor” value is recorded as “decreased”, the “expression level of DMBX1 in absence of the factor” value was “increased” and the “expression level of OTX2 in absence of the factor” value was “decreased”. The “impact on expression level of MSX1” value in test [2] (dynamic profile, 12 effectors) is “high negative impact”. In addition, the factor contribution entry in test [2] (setting [7]) is on record as “high positive factor contributions”. Also, the factor contribution in test [2] (setting [9]) worked out at 19.9.

For `c1ccc2c(Oc3nc(Nc4ccc(N5CCOCC5)cc4)c4ncn(C5CCCCC5)c4n3)cccc2c1` [Purmorphamine], in test [3] (OTX2-optimized setting), the “impact on expression of DMBX1” value is recorded as “did not have a positive impact” and the “impact on expression of LMX1A” value is listed as “did not have a positive impact”. Further, in test [3] (setting [10]), the “expression level of DMBX1” value is on record as 3000, the “expression level of LMX1A” value turned out to be 450 and the “expression level of OTX2” value came out at 11000. Moreover, in test [3] (dynamic profile), the “impact on expression of FOXA2” value is recorded as “positive impact” and the “impact on expression of OTX2” value was “did not have a positive impact”. Also, the factor contribution in test [3] (setting [8]) was 22.2. For the same compound, in test [3], the “expression level of LMX1A in absence of the factor” value is recorded as “beneficial”, the “expression level of FOXA2 in absence of the factor” value is “reduction”, the “expression level of DMBX1 in absence of the factor” value is “beneficial” and the “expression level of OTX2 in absence of the factor” value is given as “beneficial”. The “impact on expression of FOXA2” value in test [1] (setting [4]) is listed as “positive effect; also recorded: positive impact”. Also, the factor contribution in test [1] (setting [5]) is listed as 15.3. The same compound came in with a factor contribution in test [1] (negative effect on LMX1A expression levels) of 26.2. Also, in test [1] (without addition of Purmorphamine, dynamic profile), the “expression level of FOXA2” value came to 5000.

For the compound `Cc1nn(-c2ccccc2)c(C)c1/C=N/N1CCN(Cc2ccccc2)CC1` [SANT-1], the factor contribution in test [2] (setting [11]) amounted to 9.9.

For the compound `CCOC(=O)C1=C(N)Oc2ccc(Cl)cc2C1C(C#N)C(=O)OCC` (stereo not drawn) [SC79], the factor contribution in test [1] (setting [6]) amounted to 7.3.

Take `Oc1nc(-c2ccc(C(F)(F)F)cc2)nc2c1CSCC2` [XAV939]: the factor contribution in test [2] (setting [11]) is 13.5; in test [2] (setting [9]) it was 11.2; in test [2] (model optimized for SOX6, negative impact) it was 10.8.
